Results taken from ChEMBL document CHEMBL3885861, “Open TG-GATES”.

Organism: Rattus norvegicus
Assay: Open TG-GATES - Regimen: Single
Assay type: toxicity, organism-based, Sprague-Dawley
Design: regimen Single, gender Male, age 6 weeks
Conditions: in vivo, po, 300 mg/kg, route gavage, dose level High; for APTT / Bas / Eos / Fbg / Hb / Ht / Lym / MCH / MCHC / MCV / Mono / Neu / PT / Plat / RBC / Ret / WBC: tissue Blood; for KIDNEY_L / KIDNEY_R / KIDNEY_TOTAL: tissue Kidney; for LIVER: tissue Liver; for A/G / ALP / ALT / AST / BUN / CRE / Ca / Cl / DBIL / GLC / IP / K / LDH / Na / PL / RALB / TBIL / TC / TG / TP / gamma-GTP: tissue Plasma

In the case of `Nc1ccc(Cc2ccc(N)cc2)cc1`, the TERMINAL_BW (3 h) is reported as 208.2 g, the APTT (3 h) is reported as 15.8 s and the Bas (3 h) is reported as 0%. For the same compound, the Eos (3 h) was 0.8%, the Fbg (3 h) was 257.6 mg/dL and the Hb (3 h) was 13.2 g/dL. For the same compound, the Ht (3 h) was 38.1%, the Lym (3 h) was 67.2% and the MCH (3 h) was 22 pg. For the same compound, the MCHC (3 h) was 34.5%, the MCV (3 h) was 63.6 fL and the Mono (3 h) was 6%. For the same compound, the Neu (3 h) was 25.6%, the PT (3 h) was 12.1 s and the Plat (3 h) was 142.6 x10_4/uL. It also gave an RBC (3 h) of 600 x10_4/ul, a Ret (3 h) of 8.7% and a WBC (3 h) of 64.7 x10_2/uL. For the same compound, the KIDNEY_L (3 h) was 0.9 g, the KIDNEY_R (3 h) was 0.9 g and the KIDNEY_TOTAL (3 h) was 1.8 g. It also gave an LIVER (3 h) of 9 g, an A/G (3 h) of 0.8 and an ALP (3 h) of 1363.8 IU/L. For the same compound, the ALT (3 h) was 64 IU/L, the AST (3 h) was 137.4 IU/L and the BUN (3 h) was 10.6 mg/dL. For the same compound, the CRE (3 h) was 0.2 mg/dL, the Ca (3 h) was 10.5 mg/dL and the Cl (3 h) was 102 meq/L. The DBIL (3 h) was 0.094 mg/dL, the GLC (3 h) was 183.4 mg/dL and the IP (3 h) was 9.4 mg/dL. It also gave a K (3 h) of 4 meq/L, an LDH (3 h) of 175.4 IU/L and a Na (3 h) of 139.8 meq/L. It also gave a PL (3 h) of 170.8 mg/dL, an RALB (3 h) of 2.5 g/dL and a TBIL (3 h) of 0.2 mg/dL. It also gave a TC (3 h) of 81.4 mg/dL, a TG (3 h) of 79 mg/dL and a TP (3 h) of 5.4 g/dL. For the same compound, the gamma-GTP (3 h) was 2.6 IU/L, the TERMINAL_BW (6 h) was 207.7 g and the APTT (6 h) was 15.1 s. The Bas (6 h) was 0%, the Eos (6 h) was 0.6% and the Fbg (6 h) was 257.4 mg/dL. The Hb (6 h) was 13.3 g/dL, the Ht (6 h) was 38.2% and the Lym (6 h) was 60.6%. The MCH (6 h) was 21 pg, the MCHC (6 h) was 34.8% and the MCV (6 h) was 60.2 fL. The Mono (6 h) was 3.4%, the Neu (6 h) was 34.6% and the PT (6 h) was 11.9 s. The Plat (6 h) was 133.9 x10_4/uL, the RBC (6 h) was 634.6 x10_4/ul and the Ret (6 h) was 7.3%. The WBC (6 h) was 78.7 x10_2/uL, the KIDNEY_L (6 h) was 0.9 g and the KIDNEY_R (6 h) was 0.9 g. It also gave a KIDNEY_TOTAL (6 h) of 1.9 g, an LIVER (6 h) of 8.9 g and an A/G (6 h) of 0.8. The ALP (6 h) was 1513.4 IU/L, the ALT (6 h) was 67 IU/L and the AST (6 h) was 168.6 IU/L. It also gave a BUN (6 h) of 11.8 mg/dL, a CRE (6 h) of 0.2 mg/dL and a Ca (6 h) of 10.2 mg/dL. For the same compound, the Cl (6 h) was 100.8 meq/L, the DBIL (6 h) was 0.4 mg/dL and the GLC (6 h) was 172.6 mg/dL. For the same compound, the IP (6 h) was 9.1 mg/dL, the K (6 h) was 4.2 meq/L and the LDH (6 h) was 196.8 IU/L. It also gave a Na (6 h) of 140.8 meq/L, a PL (6 h) of 152.8 mg/dL and an RALB (6 h) of 2.3 g/dL. The TBIL (6 h) was 0.6 mg/dL, the TC (6 h) was 79.8 mg/dL and the TG (6 h) was 42.6 mg/dL. For the same compound, the TP (6 h) was 5.1 g/dL, the gamma-GTP (6 h) was 5 IU/L and the TERMINAL_BW (9 h) was 208 g. For the same compound, the APTT (9 h) was 13.8 s, the Bas (9 h) was 0% and the Eos (9 h) was 0.4%. For the same compound, the Fbg (9 h) was 257 mg/dL, the Hb (9 h) was 12.6 g/dL and the Ht (9 h) was 35.8%. The Lym (9 h) was 52.2%, the MCH (9 h) was 21.1 pg and the MCHC (9 h) was 35.1%. The MCV (9 h) was 60.1 fL, the Mono (9 h) was 3.6% and the Neu (9 h) was 42.6%. It also gave a PT (9 h) of 11.9 s, a Plat (9 h) of 139.7 x10_4/uL and an RBC (9 h) of 595.6 x10_4/ul. For the same compound, the Ret (9 h) was 7.8%, the WBC (9 h) was 85.3 x10_2/uL and the KIDNEY_L (9 h) was 0.9 g. For the same compound, the KIDNEY_R (9 h) was 0.9 g, the KIDNEY_TOTAL (9 h) was 1.9 g and the LIVER (9 h) was 8.6 g. The A/G (9 h) was 0.8, the ALP (9 h) was 1671 IU/L and the ALT (9 h) was 132.8 IU/L. The AST (9 h) was 365.6 IU/L, the BUN (9 h) was 11.8 mg/dL and the CRE (9 h) was 0.2 mg/dL. For the same compound, the Ca (9 h) was 10.3 mg/dL, the Cl (9 h) was 101.6 meq/L and the DBIL (9 h) was 0.7 mg/dL. For the same compound, the GLC (9 h) was 176.2 mg/dL, the IP (9 h) was 9.2 mg/dL and the K (9 h) was 4.3 meq/L. The LDH (9 h) was 351 IU/L, the Na (9 h) was 142 meq/L and the PL (9 h) was 173 mg/dL. It also gave an RALB (9 h) of 2.3 g/dL, a TBIL (9 h) of 1 mg/dL and a TC (9 h) of 85 mg/dL. The TG (9 h) was 45.2 mg/dL, the TP (9 h) was 5.1 g/dL and the gamma-GTP (9 h) was 7.4 IU/L. It also gave a TERMINAL_BW (24 h) of 197.2 g, an APTT (24 h) of 16.2 s and a Bas (24 h) of 0%. For the same compound, the Eos (24 h) was 1%, the Fbg (24 h) was 321.4 mg/dL and the Hb (24 h) was 12 g/dL. It also gave a Ht (24 h) of 33.2%, a Lym (24 h) of 52.8% and an MCH (24 h) of 21.6 pg. For the same compound, the MCHC (24 h) was 36%, the MCV (24 h) was 59.8 fL and the Mono (24 h) was 6.2%. It also gave a Neu (24 h) of 39%, a PT (24 h) of 11.9 s and a Plat (24 h) of 148.1 x10_4/uL. For the same compound, the RBC (24 h) was 554.4 x10_4/ul, the Ret (24 h) was 6% and the WBC (24 h) was 157.9 x10_2/uL. It also gave a KIDNEY_L (24 h) of 0.9 g, a KIDNEY_R (24 h) of 0.9 g and a KIDNEY_TOTAL (24 h) of 1.8 g. The LIVER (24 h) was 7.5 g, the A/G (24 h) was 0.8 and the ALP (24 h) was 3659.6 IU/L. The ALT (24 h) was 566.8 IU/L, the AST (24 h) was 1154.8 IU/L and the BUN (24 h) was 12 mg/dL. The CRE (24 h) was 0.2 mg/dL, the Ca (24 h) was 11 mg/dL and the Cl (24 h) was 102.6 meq/L. For the same compound, the DBIL (24 h) was 2.2 mg/dL, the GLC (24 h) was 145.6 mg/dL and the IP (24 h) was 8.7 mg/dL. For the same compound, the K (24 h) was 4 meq/L, the LDH (24 h) was 788.8 IU/L and the Na (24 h) was 144.2 meq/L. For the same compound, the PL (24 h) was 346.4 mg/dL, the RALB (24 h) was 2.4 g/dL and the TBIL (24 h) was 3.2 mg/dL. It also gave a TC (24 h) of 145.2 mg/dL, a TG (24 h) of 133.6 mg/dL and a TP (24 h) of 5.6 g/dL. The gamma-GTP (24 h) was 8.4 IU/L.
